According to US20030065039A1, “Biologically active 1,3-bis-aromatic-prop-2-en-1-ones, 1,3-bis-aromatic-propan-1-ones, and 1,3-bis-aromatic-prop-2-yn-1-ones” (Statens Serum Institute, priority 1997, published 2003):

Key:
[1] = system: Vero cell cultures; assay: Cytotoxicity in Vero cell cultures; type: cell-based; conditions: Vero cells; values given as fractions, footnote a not given
Excerpt: (§1) In the following is reported the results from a Vero cell culture infected with different viruses. The cell culture used as well as the methods applied are well known to a person skilled in the art.

[2] = system: Simliki forest virus; assay: Antiviral activity in Vero cell cultures; type: cell-based; conditions: Vero cells; values given as fractions
Experimental: (§2) IC50 values are determined by the virus plaque formation and/or the virus cytopathic assay using standard methods well-known in the art.
as §1

[3] = system: Sindbis virus; assay: Antiviral activity in Vero cell cultures; type: cell-based; conditions: Vero cells; values given as fractions
Experimental: as §2, §1

[4] = system: Reovirus-1; assay: Antiviral activity in Vero cell cultures; type: cell-based; conditions: Vero cells; values given as fractions
Experimental: as §2, §1

[5] = system: Parainfluenza-3 Virus; assay: Antiviral activity in Vero cell cultures; type: cell-based; conditions: Vero cells; values given as fractions
Experimental: as §2, §1

[6] = system: Coxsackie virus B4; assay: Antiviral activity in Vero cell cultures; type: cell-based; conditions: Vero cells; values given as fractions
Experimental: as §2, §1

[7] = system: cytomegalovirus AD-169 strain; assay: Activity against cytomegalovirus in HEL cells (plaque formation); type: cell-based; conditions: virus plaque formation reduced by 50%, 100 PFU, values given as fractions
Experimental: as §2

[8] = system: cytomegalovirus Davis strain; assay: as above; type: cell-based; conditions: virus plaque formation reduced by 50%, 100 PFU, values given as fractions
Experimental: as §2

[9] = system: human embryonic lung (HEL) cells; assay: Cytotoxicity in human embryonic lung (HEL) cells; type: cell-based; conditions: HEL cell growth reduced by 50%; values given as fractions
[10] = target: T1, Helicobacter pylori fumarate reductase (Helicobacter pylori, UniProt O06913); type: biochemical; conditions: at concentration of 0.2 mM
T1 construct: Membrane associated proteins were solubilized from the pellet in 150 mM KCl, pH 7.0; endogenous in cells; host or cells: Helicobacter pylori 007 strain; KCl-solubilised fraction (or sonicate supernatant)
T1 sequence (O06913 1-714): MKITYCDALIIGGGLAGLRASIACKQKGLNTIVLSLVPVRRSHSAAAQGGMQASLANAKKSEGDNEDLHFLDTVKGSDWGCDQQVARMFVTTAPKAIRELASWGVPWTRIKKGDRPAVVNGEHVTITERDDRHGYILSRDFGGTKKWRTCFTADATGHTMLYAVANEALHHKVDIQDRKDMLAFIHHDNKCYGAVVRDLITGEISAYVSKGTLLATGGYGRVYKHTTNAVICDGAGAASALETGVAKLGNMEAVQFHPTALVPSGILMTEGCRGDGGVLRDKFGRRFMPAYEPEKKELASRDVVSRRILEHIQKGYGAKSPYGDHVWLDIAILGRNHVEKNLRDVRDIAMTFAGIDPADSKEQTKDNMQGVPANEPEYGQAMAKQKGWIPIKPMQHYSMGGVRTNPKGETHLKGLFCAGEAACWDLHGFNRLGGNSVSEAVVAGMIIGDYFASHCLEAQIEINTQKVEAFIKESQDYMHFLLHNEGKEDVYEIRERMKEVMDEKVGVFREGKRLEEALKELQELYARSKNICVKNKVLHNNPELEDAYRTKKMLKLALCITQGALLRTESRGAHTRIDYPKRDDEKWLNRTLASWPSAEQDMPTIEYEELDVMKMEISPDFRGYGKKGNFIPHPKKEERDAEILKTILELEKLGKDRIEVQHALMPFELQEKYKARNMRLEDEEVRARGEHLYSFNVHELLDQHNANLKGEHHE
T1 sequence (O06914 1-245 partner): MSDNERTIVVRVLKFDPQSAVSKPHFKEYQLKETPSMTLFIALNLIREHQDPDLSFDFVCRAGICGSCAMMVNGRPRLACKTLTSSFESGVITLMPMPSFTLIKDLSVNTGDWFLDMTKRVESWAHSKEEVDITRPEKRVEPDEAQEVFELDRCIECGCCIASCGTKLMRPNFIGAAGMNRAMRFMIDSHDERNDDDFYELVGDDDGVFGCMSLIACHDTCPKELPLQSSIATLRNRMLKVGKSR
T1 sequence (O06912 1-255 partner): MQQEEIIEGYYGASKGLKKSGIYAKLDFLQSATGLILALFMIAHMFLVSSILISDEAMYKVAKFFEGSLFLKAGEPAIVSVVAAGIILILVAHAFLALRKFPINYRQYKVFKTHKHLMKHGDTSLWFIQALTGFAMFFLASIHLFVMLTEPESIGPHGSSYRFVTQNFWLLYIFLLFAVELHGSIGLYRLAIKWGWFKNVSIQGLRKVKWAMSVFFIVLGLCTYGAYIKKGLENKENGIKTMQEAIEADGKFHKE
Experimental: 1) Extraction of soluble FRD: Bacteria were harvested by centrifugation at 18,000 g for 10 min at 4° C., and were washed 2 times in an isotonic phosphate saline buffer (50 mM sodium phosphate, pH 7.2, 90 mM NaCl, 5 mM Kcl). Bacteria were lysed in 5 mM Tris-HCl, pH 7.4, for 15 minutes, and centrifuged 18,000 g for 10 minutes. Membrane associated proteins were solubilized from the pellet in 150 mM KCl, pH 7.0, in ice bath for 60 min, and then the supernatant was collected after centrifugation (18,000 g for 10 minutes) for the measurement of FRD activity.
2) Extraction of FRD by sonication: Bacteria were harvested by centrifugation at 18,000 g for 10 min at 4° C., were sonicated, and then the supernatant was collected after centrifugation (18,000 g for 10 minutes) for the measurement of FRD activity.
NADH-FRD activity was determined as the rate of NADH-oxidation upon addition of 1 mM fumarate in the KCl-solubilized fraction or sonicated fraction. The reaction was monitored spectrophotometrically at 340 nm (∈=6.2 mM^−1 cm^−1) using 100 μM NADH and usually 3 mg protein in both reference and sample cuvettes. The measurement was carried out in a Shimadzu UV-190 double-beam spectrophotometer. Protein concentrations were determined using a Bio-Rad protein assay (Bio-Rad Laboratories, 200 Alfred Nobel Dr. Hercules, Calif. 94547, USA).
KCl solubilised fraction of bacteria was incubated with different concentrations of various oxygenated chalcones at 28° C. and the remaining FRD activity was measured. The IC50 values were determined as the concentration at which 50% of the activity was inhibited.

[11] = Preliminary 14 days oral toxicity study in rats; type: in vivo; conditions: highest dose level 1000 mg/kg/day
Experimental: A preliminary 14 days oral toxicity study in rats was carried out with 6 compounds. Observations included clinical signs, body weights, food intake, haematology, clinical chemistry and macroscopic pathology.

| Compound | Minimum Cytotoxic Concentration [1] | Minimum inhibitory concentration, Simliki forest virus [2] | Minimum inhibitory concentration, Sindbis virus [3] | Minimum inhibitory concentration, Reovirus-1 [4] | Minimum inhibitory concentration, Parainfluenza-3 Virus [5] | Minimum inhibitory concentration, Coxsackie virus B4 [6] | Antiviral activity IC50, AD-169 strain, Assay 1 [7] | Antiviral activity IC50, Davis strain, Assay 1 [8] | Cytotoxicity CC50 [9] | activity of NADH-fumarate reductase [10] | toxic effects [11] |
| --- | --- | --- | --- | --- | --- | --- | --- | --- | --- | --- | --- |
| C=CCOc1ccc(C(=O)/C=C/c2cccc(OC)c2OC)cc1 [2,3m4′ac] | <1/100 | <1/100 | <1/100 | <1/100 | <1/100 | <1/100 | <1/30 | <1/30 | <1/30 |  |  |
| C=CCOc1ccc(C(=O)/C=C/c2cc(OC)c(OC)cc2OC)cc1 [2,4,5m4′ac] | <1/100 | 1/600 | 1/2000 | <1/100 | 1/2000 | 1/600 | 1/60 | <1/30 | <1/30 |  |  |
| C=CCOc1ccc(C(=O)/C=C/c2c(OC)cc(OC)cc2OC)cc1 [2,4,6m4′ac] | <1/100 | 1/600 | 1/2000 | <1/100 | 1/2000 | 1/600 | 1/200 | 1/120 | <1/30 |  |  |
| COc1ccc(/C=C/C(=O)c2ccccc2O)c(OC)c1 [2,4m2′hc] | <1/100 | <1/100 | <1/100 | <1/100 | <1/100 | <1/100 | <1/60 | <1/60 | <1/60 |  |  |
| COc1ccc(/C=C/C(=O)c2ccccc2)c(OC)c1 [2,4mc] | <1/100 | <1/100 | <1/100 | <1/100 | <1/100 | <1/100 | <1/30 | 1/35 | <1/30 |  |  |
| C=CCOc1ccc(C(=O)/C=C/c2cc(OC)ccc2OC)cc1 [2,5m4′ac] | <1/100 | <1/100 | <1/100 | <1/100 | <1/100 | <1/100 | 1/35 | 1/55 | <1/30 |  |  |
| COc1cccc(OC)c1/C=C/C(=O)c1ccc(O)cc1 [2,6m4′hc] | <1/100 | 1/600 | 1/2000 | <1/100 | 1/600 | 1/600 | 1/150 | 1/300 | 1/80 |  |  |
| O=C(CC(=O)C(F)(F)F)c1cccs1 [2-thenoyltrifluoroacetone, reference compound] |  |  |  |  |  |  |  |  |  | almost completely inhibited |  |
| C=CCOc1ccc(C(=O)/C=C/c2cc(OC)c(OC)c(OC)c2)cc1 [3,4,5m4′ac] | <1/100 | 1/600 | 1/2000 | <1/100 | 1/2000 | 1/2000 | 1/150 | 1/85 | <1/60 |  |  |
| COc1ccc(/C=C/C(=O)c2ccc(O)cc2)cc1OC [3,4m4′hc] | <1/100 | <1/100 | <1/100 | <1/100 | <1/100 | <1/100 | 1/45 | 1/55 | <1/30 |  |  |
| C=CCOc1ccc(C(=O)/C=C/c2ccc(OC)cc2OC)cc1 [24m4′ac, 2,4-dimethoxy-4′allyloxychalcone] |  |  |  |  |  |  |  |  |  |  | No toxic effects |
